Tests used:
MCP-1 = MCP-1 chemokine secretion by TNFα-stimulated primary human hepatic stellate cells (ELISA); assay type: cell-based; conditions: for MCP-1 chemokine secretion, per-cell normalized, fold change from plasma amino acid background: primary human hepatic stellate cells, two donors, TNFα 3 ng/mL, 12 hours; for Fold Change MCP1 Secretion Normalized Per Cell, Mean: donor 3 hepatic stellate cells, TNFα, fold change from plasma amino acid background
Protocol: Primary human hepatic stellate cells were obtained from Samsara Sciences and grown in Complete HSC Medium to […] confluence in T75 or T150 flasks below passage 10 were seeded into 96-well plates and incubated for 6 hours at 37° C., 5% CO2 in a humidified incubator. After 6 hours, plates were removed from the incubator washed with DPBS and pretreated (±single amino acid dropout, ±supplemental amino acid dose; see experiment for medium composition) overnight, ˜14-15 hours. After overnight pretreatment, the medium was removed from the cells, and the same pretreatment medium, now supplemented with 3 ng/mL TNFα was applied. Plates were incubated for 12 hours at 37° C., 5% CO2. After 12 hour stimulus with TNFα, supernatant was removed and frozen at −80° C. in two separate aliquots. Plates were washed and incubated with CCK-8 viability reagent (Dojindo) for 1 hour. Viability was measured on the Synergy plate reader. Immediately, the medium was removed and the plates were fixed for immunofluorescence staining.
Human CCL2/MCP1 and Human IL-6 were measured by ELISA (Human […] DuoSet ELISA, R&D Systems; Human IL-6 DuoSet ELISA, R&D Systems) at ⅕ and 1/20 dilution in 1× Reagent Diluent (Reagent Ancillary Kit 2, R&D Systems). Data were normalized to the specific per well cell density determined by Hoechst stained nuclei count.
Tables 35-38 show per-cell normalized MCP-1 chemokine secretion in primary human hepatic stellate cells from two donors as a fold change from the plasma amino acid background. Statistical significance calculated by one-way ANOVA with Dunnett's multiple comparison test within each treatment group.

TNFα = assay: LPS-induced TNFα secretion in primary human monocyte-derived macrophages (ELISA); assay type: cell-based; set-up: TNFa Measurements Mean: unit not given here; conditions: for TNFa Measurements Mean: LPS 0.15 ng/mL; for TNFa Measurements Mean / Donor 2 TNFa Measurements Mean / Donor 3 TNFa Measurements Mean: baseline subtracted; for LPS-induced TNFα secretion: macrophages, 0.15 ng/mL LPS
Protocol: Unpurified buffy coats (Research Blood Components) were carefully poured into 50 mL centrifuge tubes and diluted with room temperature Dulbecco's Phosphate Buffered Saline (dPBS) with Calcium and Magnesium (Gibco). Diluted buffy coats were further divided into four total 50 mL centrifuge tubes at 20 mL per tube. Lymphocyte Separation Medium (Corning) was carefully pipetted to the bottom of each centrifuge tube. Mixtures were centrifuged at 850× g for 32 minutes at 20° C. with 0 deceleration and acceleration.
The PBMC layer was separated from other components after centrifugation and added to new 50 mL centrifuge tube containing 25 mL dPBS. Total volume was brought up to 50 mL with dPBS and centrifuged at 600×g for 10 minutes at 20° C. with acceleration of 9, deceleration of 5. Supernatant was carefully removed from cell pellets. The cell pellets were resuspended using 10 mL dPBS. Total volume was then brought up to 50 mL using dPBS and centrifuged at 450×g for 5 min at 20° C. with acceleration of 9, deceleration of 9. The supernatant removal and cell pellet resuspension was repeated again.
The supernatant was then carefully removed from cell pellets. Cell pellets were resuspended in 10 mL dPBS without calcium or magnesium and filtered through a 70 uM cell strainer. The total PBMC number was determined using a Cellometer K2 automated cell counter. A total of 5E6 cells were saved for flow cytometric analysis. Remaining cells were centrifuged at 490×g for 5 minutes at 20° C. with acceleration of 9, deceleration of 9.
CD14+ cells were selected using EasySep™ Human CD14 Positive Selection Kit II ([…] Technologies). Cells were resuspended in cold EasySep™ Buffer ([…] Technologies) at 1×10^8 cells/mL. A total of 100 uL/mL EasySep™ Human CD14 Positive Selection Cocktail II was added to the cell suspension, mixed, and incubated at room temperature for 10 minutes. A total of 100 uL/mL RapidSpheres were added to the mixture and incubated at room temperature for 3 minutes after mixing, then RoboSep buffer was added to bring up the total volume to 10 mL. The mixture in a 15 mL tube was placed in magnet and incubated at room temperature for 3 minutes. Supernatant was discarded and 10 mL fresh EasySep™ buffer was added to 15 mL tube. The addition of RoboSep buffer, mixing, and discarding of supernatant was repeated two more times.
Negative and positive fractions were centrifuged at 490×g for 5 minutes at 20° C. with acceleration of 9, deceleration of 9, and resuspended in DMEM (Gibco) and 10% Heat Inactivated Fetal Bovine Serum (Atlanta Bio) and Penicillin/Streptomycin. Cells were counted and centrifuged again at 490× g for 5 minutes at 20° C. with acceleration of 9, deceleration of 9. After centrifugation, cell were resuspended in DMEM (Gibco) and 10% Heat Inactivated Fetal Bovine Serum (Atlanta Bio) and Penicillin/Streptomycin containing 500 U/mL […] and plated at 1-2×10^6 cells/mL on 10 cm tissue culture plates. Cells were kept in 37° C., 5% CO2 in between feedings/harvest.
Cells were fed every 3-4 days by removing media and unattached cells, centrifuging at 490× g for 5 minutes at 20° C. with acceleration of 9, deceleration of 9, and resuspending in fresh DMEM (Gibco) and 10% Heat Inactivated Fetal Bovine Serum (Atlanta Bio) and Penicillin/Streptomycin containing GM-CSF. Resuspended cells were seeded back onto 10 cm tissue culture plates and incubated at 37° C., 5% CO2. Differentiated macrophages were used for subsequent experiments.
Primary human PMBC derived macrophages were seeded on day 0 at 3.0E4 cells per well in 96-well microplates (ThermoFisher) in Dulbecco's Modified Eagle Medium (DMEM) (Gibco) supplemented with penicillin-streptomycin (Hyclone) and 10% heat inactivated fetal bovine serum (HI-FBS) (Atlanta Bio) and incubated overnight at 37° C., 5% CO2. On day 1, cells were washed once with 150 uL per well DPBS (Gibco) and treated with 75 uL of: • a. […]

**Q.** For `CC(C)C[C@H](N)C(=O)O` [Leucine, L-Leucine], which “Fold Change MCP1 Secretion Normalized Per Cell” value (MCP-1; donor 3, Conc. 153 μM (plasma background, reference)) is on record?
**A.** The value was 1.0000.

**Q.** And the “Fold Change MCP1 Secretion Normalized Per Cell” value (MCP-1; donor 3, Conc. 3054 μM)?
**A.** The value was 1.1479.

**Q.** What about the “Fold Change MCP1 Secretion Normalized Per Cell” value (MCP-1; donor 3, Conc. 7635 μM) of the same compound?
**A.** Its value is 1.3054.

**Q.** What about the “Fold Change MCP1 Secretion Normalized Per Cell” value (MCP-1; donor 3, Conc. 15270 μM) of the same compound?
**A.** The value was 1.1808.

**Q.** And the “Fold Change MCP1 Secretion Normalized Per Cell” value (MCP-1; donor 4, Conc. 153 μM (plasma background, reference))?
**A.** The value was 1.0000.

**Q.** What about the “MCP-1 chemokine secretion, per-cell normalized, fold change from plasma amino acid background” value (MCP-1) of the same compound?
**A.** Its value is “no significant impact”.

**Q.** And the “TNFa Measurements Mean” value (TNFα; Donor 1, Conc. 153 μM (baseline))?
**A.** The value was 0.

**Q.** And the “TNFa Measurements Mean” value (TNFα; Donor 1, Conc. 3054 μM)?
**A.** The value was 42.04.

**Q.** What about the “TNFa Measurements Mean” value (TNFα; Donor 1, Conc. 7635 μM) of the same compound?
**A.** The value was −23.04.

**Q.** What about the “TNFa Measurements Mean” value (TNFα; Donor 1, Conc. 15270 μM) of the same compound?
**A.** Its value is −46.21.

**Q.** And the “Donor 2 TNFa Measurements Mean” value (TNFα; Donor 2, Conc. 153 μM (baseline))?
**A.** The value was 0.

**Q.** What about the “Donor 2 TNFa Measurements Mean” value (TNFα; Donor 2, Conc. 3054 μM) of the same compound?
**A.** Its value is 31.74.

**Q.** And the “Donor 2 TNFa Measurements Mean” value (TNFα; Donor 2, Conc. 7635 μM)?
**A.** The value was 41.98.

**Q.** What about the “Donor 2 TNFa Measurements Mean” value (TNFα; Donor 2, Conc. 15270 μM) of the same compound?
**A.** The value was 46.69.

**Q.** And the “LPS-induced TNFα secretion” value (TNFα; Donor 2)?
**A.** Its value is “increased”.

**Q.** How did the “Fold Change MCP1 Secretion Normalized Per Cell, Mean” value (MCP-1; Conc. 5 X) turn out when `CC(=O)N[C@@H](CS)C(=O)O` [NAC, N-acetylcysteine] was run?
**A.** Its value is 0.8492.

**Q.** What about the “Fold Change MCP1 Secretion Normalized Per Cell, Mean” value (MCP-1; Conc. 10 X) of the same compound?
**A.** Its value is 0.6565.

**Q.** What about the “Fold Change MCP1 Secretion Normalized Per Cell, Mean” value (MCP-1; Conc. 20 X) of the same compound?
**A.** The value was 0.5413.

**Q.** What about the “Fold Change MCP1 Secretion Normalized Per Cell, Mean” value (MCP-1; Conc. 40 X) of the same compound?
**A.** Its value is 0.4485.

**Q.** And the “Fold Change MCP1 Secretion Normalized Per Cell” value (MCP-1; donor 3, Conc. 1000 μM)?
**A.** Its value is 0.8492.

**Q.** What about the “Fold Change MCP1 Secretion Normalized Per Cell” value (MCP-1; donor 3, Conc. 2500 μM) of the same compound?
**A.** Its value is 0.6565.

**Q.** What about the “Fold Change MCP1 Secretion Normalized Per Cell” value (MCP-1; donor 3, Conc. 5000 μM) of the same compound?
**A.** The value was 0.5413.

**Q.** And the “Fold Change MCP1 Secretion Normalized Per Cell” value (MCP-1; donor 3, Conc. 10000 μM)?
**A.** The value was 0.4485.

**Q.** And the “Fold Change MCP1 Secretion Normalized Per Cell” value (MCP-1; donor 4, Conc. 5 X)?
**A.** Its value is 0.6437.

**Q.** What about the “Fold Change MCP1 Secretion Normalized Per Cell” value (MCP-1; donor 4, Conc. 10 X) of the same compound?
**A.** The value was 0.8033.

**Q.** And the “Fold Change MCP1 Secretion Normalized Per Cell” value (MCP-1; donor 4, Conc. 20 X)?
**A.** The value was 0.6728.

**Q.** And the “Fold Change MCP1 Secretion Normalized Per Cell” value (MCP-1; donor 4, Conc. 40 X)?
**A.** The value was 0.5011.

**Q.** And the “MCP-1 chemokine secretion, per-cell normalized, fold change from plasma amino acid background” value (MCP-1)?
**A.** The value was “significantly reduced”.

**Q.** What about the “TNFa Measurements Mean” value (TNFα; Donor 1, Conc. 0 X (baseline)) of the same compound?
**A.** The value was 0.

**Q.** And the “TNFa Measurements Mean” value (TNFα; Donor 1, Conc. 5 X)?
**A.** Its value is −326.24.

**Q.** And the “TNFa Measurements Mean” value (TNFα; Donor 1, Conc. 10 X)?
**A.** Its value is −446.88.

**Q.** What about the “TNFa Measurements Mean” value (TNFα; Donor 1, Conc. 20 X) of the same compound?
**A.** The value was −561.33.

**Q.** What about the “TNFa Measurements Mean” value (TNFα; Donor 1, Conc. 40 X) of the same compound?
**A.** Its value is −644.49.

**Q.** What about the “Donor 2 TNFa Measurements Mean” value (TNFα; Donor 2, Conc. 0 X (baseline)) of the same compound?
**A.** Its value is 9.47E−15.

**Q.** What about the “Donor 2 TNFa Measurements Mean” value (TNFα; Donor 2, Conc. 5 X) of the same compound?
**A.** The value was −54.1596.

**Q.** What about the “Donor 2 TNFa Measurements Mean” value (TNFα; Donor 2, Conc. 10 X) of the same compound?
**A.** Its value is −70.8382.

**Q.** What about the “Donor 2 TNFa Measurements Mean” value (TNFα; Donor 2, Conc. 20 X) of the same compound?
**A.** Its value is −88.6528.

**Q.** What about the “Donor 2 TNFa Measurements Mean” value (TNFα; Donor 2, Conc. 40 X) of the same compound?
**A.** The value was −103.984.

**Q.** And the “Donor 3 TNFa Measurements Mean” value (TNFα; Donor 3, Conc. 0 X (baseline))?
**A.** Its value is 4.74E−15.

**Q.** What about the “Donor 3 TNFa Measurements Mean” value (TNFα; Donor 3, Conc. 5 X) of the same compound?
**A.** The value was −33.6246.

**Q.** What about the “Donor 3 TNFa Measurements Mean” value (TNFα; Donor 3, Conc. 10 X) of the same compound?
**A.** The value was −41.7266.

**Q.** And the “Donor 3 TNFa Measurements Mean” value (TNFα; Donor 3, Conc. 20 X)?
**A.** Its value is −48.4373.

**Q.** And the “Donor 3 TNFa Measurements Mean” value (TNFα; Donor 3, Conc. 40 X)?
**A.** The value was −55.3093.

**Q.** And the “LPS-induced TNFα secretion” value (TNFα; Donor 1)?
**A.** Its value is “significantly reduced”.

**Q.** What about the “LPS-induced TNFα secretion” value (TNFα; Donor 2) of the same compound?
**A.** The value was “significantly reduced”.

**Q.** And the “LPS-induced TNFα secretion” value (TNFα; Donor 3)?
**A.** Its value is “significantly reduced”.

Source: US20210260010A1, “COMPOSITIONS AND METHODS FOR THE REDUCTION OR TREATMENT OF INFLAMMATION” (AXCELLA HEALTH INC., priority 2018, published 2021)
